Data on 34 compounds can be found in a melting point compilation (Tetko et al.; mined from patent text by program, amines drawn as free bases though some values may be those of a salt).

SMILES strings stand for the structures.

In general, melting point refers to the temperature, or range, at which the solid turns liquid. `Cc1ccc(NC(=O)c2cccc(N3CCOCC3)c2)cc1[N+](=O)[O-]` yielded a melting point of 149 to 150 °C.

`CC(C)(CCCCCCCc1c(-c2ccccc2)nc(-c2ccccc2)n1-c1ccccc1)C(=O)O` had a melting point of 119 to 120 °C.

As for `CC(=O)Nc1ccc2c(c1)C(c1cccn1-c1cc(Cl)cc(Cl)c1)C(=O)N2` (centres undefined), the melting point is 267 °C. In turn, `CSc1nnc2c3ccccc3c(-c3ccccc3)nn12` displayed a melting point of 220 to 221 °C. Turning to `ON=C(c1ccccc1)c1cccc2nc(N[C@@H]3CCc4ccccc43)ccc12`, the melting point is 176 °C. `CC(=O)NC[C@H]1CN(c2ccc(N3CCC4(CCO4)CC3)c(F)c2)C(=O)O1` showed a melting point of 164 to 166 °C.

In turn, `Cc1ccc(NC(=O)c2ccc(CN3CCCCC3)c(C(F)(F)F)c2)cc1-c1ccc2cnncc2c1` returned a melting point of 175 to 177 °C. `COc1cc(C(C)(C)C)c(OC(C)=O)c(C(C)(C)C)c1CC(C)=O` yielded a melting point of 133 °C.

In turn, `O=C1C2CCCCC2C(=O)N1CCOC(OCCN1C(=O)C2CCCCC2C1=O)(C(=O)c1ccccc1)c1ccccc1` (centres undefined) registered a melting point of 115 to 116 °C. Compound `CN1CCN(c2ccc3c(=O)n4c(nc3c2)C(=O)c2cc(F)ccc2-4)CC1` gave a melting point of 242 to 244 °C. Compound `COC(=O)CCC(=O)N1CCc2cc(S(=O)(=O)N3CCN(c4ccc(F)cc4)CC3)ccc21` came in with a melting point of 213 to 215 °C.

`N#CC1=C(C#N)Sc2nc3cc([N+](=O)[O-])c([N+](=O)[O-])cc3nc2S1` registered a melting point of 230 to 233 °C. `O=C(NC1C2CC3CC(C2)CC1C3)N1CCC2(C=Cc3ccccc32)CC1` (centres undefined) displayed a melting point of 189 to 191 °C.

With `CS(=O)(=O)c1ccc(C(=O)c2c(O)cc(Cl)cc2Cl)c(Cl)c1`, the melting point is 123 to 126 °C. For `CC(=O)SCC(C(=O)NC(C)C(=O)O)C(C)c1ccc(F)cc1` (centres undefined), the melting point worked out at 93 °C.

The compound `C=C[C@H]1CC(C(=O)OC)=C[C@@H](OC(C)C)[C@@H]1NC(C)=O` had a melting point of 132 to 133 °C. `NS(=O)(=O)OCCCOc1ccc(-n2ccnc2)cc1` yielded a melting point of 105 to 106 °C. The compound `c1ccc(CSc2nc3cc4ccccc4cc3[nH]2)nc1` registered a melting point of 170 °C. In turn, `NC(N)=Nc1nc(N2CCOCC2)nc2c1ccc1ccccc12` gave a melting point of 235 °C. With `COc1cc(OS(=O)(=O)OC(F)(F)F)c2c(=O)c3ccc(Cl)cc3n(C)c2c1`, the melting point was 234 to 236 °C.

`Cc1c(Cl)ccc(NC(=O)CN2C(=O)c3ccccc3C2=O)c1Cl` registered a melting point of 245 to 246 °C. For `COc1ccc(C#N)cc1/C=C/C(=O)Sc1nc2ccccc2s1`, the melting point lay within 183 to 185 °C. The compound `CN(c1ncnc2c1ncn2C1OC(CO)C(O)C1O)n1cccc1` (centres undefined) yielded a melting point of 195 to 197 °C. Compound `CC1(CN2CCC(Cc3ccc(F)cc3)CC2)CC(c2ccc3[nH]c(=O)oc3c2)=NO1` (centres undefined) yielded a melting point of 82 to 86 °C. As to `CCOC(=O)C1=C(COCC2CO2)NC(C)=C(C(=O)OC)C1c1cccc(Cl)c1Cl` (centres undefined), the melting point lay within 103 to 104 °C. In turn, `OCCC(O)OCn1ccc2c(Cl)ncnc21` (centres undefined) gave a melting point of 114 °C. The compound `CCCCCCN1CC[C@H](NC(=O)c2cc(Cl)c(N)c3c2OCC3)[C@H](O)C1` (relative stereo) returned a melting point of 130 °C.

On to `CCOC(=O)c1[nH]c(CC)nc1C1CC1`, for which the melting point was in the range of 154 to 155 °C.

With `COC(=O)c1ccccc1NC(=O)N(C)C`, the melting point was 85 to 90 °C. For the compound `CN1C(=O)c2ccc(NCC(O)CCl)cc2C1=O` (centres undefined), the melting point lay within 136 to 138 °C. Compound `[N-]=[N+]=NCC1OC(n2c(N=[N+]=[N-])nc3c(N)ncnc32)C(O)C1O` (centres undefined) came in with a melting point of 128 to 130 °C. The compound `CCCC[C@H](NC(=O)[C@H](CC(=O)O)NC(=O)Nc1ccc([N+](=O)[O-])cc1)C(=O)OC` had a melting point of 204 to 205 °C. In the case of `O=C1N[C@H](Cc2ccc(C(F)(F)F)cc2)[C@H](c2cccc3ccccc23)O1` (racemic), the melting point lay in the range of 202 to 203 °C.

`CN1C(=O)c2cnc(-c3ccccc3)nc2Nc2ccccc21` yielded a melting point of 227 °C.
